# Key:
# [1] = Solubility of colchicine in different types of pressure-sensitive adhesives; type: physicochemical; settings: for State in the 4098 pressure-sensitive adhesive: 0 days; for Stability (crystallization or not) in the 4098 pressure-sensitive adhesive: room temperature for 4 months
# Description: Colchicine with different contents was dissolved in pressure-sensitive adhesive systems with different properties.
# [2] = Solubility test of colchicine in solvents; type: physicochemical; settings: thermodynamic from solid, 25° C.
# Description: About 2 g of the colchicine raw material was weighed and placed in a 100 ml brown volumetric flask, into which 10 ml of a solvent was added. The mixture was uniformly mixed, placed in a thermostatic oscillator with a water bath at 25° C., and observed periodically, into which the raw material was continuously added once the solution became clear. […] After the saturated solution was centrifuged in a centrifuge, the supernatant was taken and diluted to a suitable concentration, the concentration of which was then determined using the external standard method, and the solubility was calculated.
smiles,measurement,setting,value
"COc1cc2c(c(OC)c1OC)-c1ccc(OC)c(=O)cc1[C@@H](NC(C)=O)CC2 [colchicine, N-(5,6,7,9-tetrahydro-1,2,3,10-tetramethoxy-9-oxobenzo[α]cycloheptatrienocycloheptatrien-7-yl)-(S)-acetamide]",State in the 4098 pressure-sensitive adhesive,[1]; content higher than 5%,semitransparent
same,State in the 4098 pressure-sensitive adhesive,[1]; content of colchicine 5% or less,transparent
same,Stability (crystallization or not) in the 4098 pressure-sensitive adhesive,[1]; content 5% or less,no crystallization is found
same,Stability (crystallization or not) in the 4098 pressure-sensitive adhesive,[1]; content more than 5%,crystallization is precipitated
same,Highest solubility of colchicine in typical acrylic pressure-sensitive adhesives,[1]; without a permeation enhancer,about 5%
same,solubility at 24 h,"[2]; 1 M triethanolamine (TEOA) in ethanol, organic solvent or mixture, 1M solution of TEOA (triethanolamine) in ethanol",740 mg/mL
same,solubility at 24 h,"[2]; organic solvent or mixture, DGME (diethylene glycol monoethyl ether)",350 mg/mL
same,solubility at 24 h,"[2]; organic solvent or mixture, Ethanol:ethyl acetate (1:1, v/v)",380 mg/mL
same,solubility at 24 h,"[2]; organic solvent or mixture, Ethyl acetate",0.48 mg/mL
same,solubility at 24 h,"[2]; organic solvent or mixture, ethanol",590 mg/mL
same,solubility at 24 h,[2]; water,> 1000 mg/mL

# — US20260014095A1, “PATCH […] PREPARATION METHOD AND USE THEREOF” (DEMOTECH.INC., priority 2022, published 2026)
